Experimental data published in patent US11345681B1, “Inhibitors of fibroblast growth factor receptor kinases” (Kinnate Biopharma Inc., priority 2020, dated 2022).

The compounds below were run against Wild type FGFR2 (Homo sapiens (Human), UniProt P21802) (assay: FGFR2 kinase assay (fluorescence-based microfluidic mobility shift assay)). Conditions: not given.
Assay type: biochemical

Wild type FGFR2, sequence (P21802 22-821): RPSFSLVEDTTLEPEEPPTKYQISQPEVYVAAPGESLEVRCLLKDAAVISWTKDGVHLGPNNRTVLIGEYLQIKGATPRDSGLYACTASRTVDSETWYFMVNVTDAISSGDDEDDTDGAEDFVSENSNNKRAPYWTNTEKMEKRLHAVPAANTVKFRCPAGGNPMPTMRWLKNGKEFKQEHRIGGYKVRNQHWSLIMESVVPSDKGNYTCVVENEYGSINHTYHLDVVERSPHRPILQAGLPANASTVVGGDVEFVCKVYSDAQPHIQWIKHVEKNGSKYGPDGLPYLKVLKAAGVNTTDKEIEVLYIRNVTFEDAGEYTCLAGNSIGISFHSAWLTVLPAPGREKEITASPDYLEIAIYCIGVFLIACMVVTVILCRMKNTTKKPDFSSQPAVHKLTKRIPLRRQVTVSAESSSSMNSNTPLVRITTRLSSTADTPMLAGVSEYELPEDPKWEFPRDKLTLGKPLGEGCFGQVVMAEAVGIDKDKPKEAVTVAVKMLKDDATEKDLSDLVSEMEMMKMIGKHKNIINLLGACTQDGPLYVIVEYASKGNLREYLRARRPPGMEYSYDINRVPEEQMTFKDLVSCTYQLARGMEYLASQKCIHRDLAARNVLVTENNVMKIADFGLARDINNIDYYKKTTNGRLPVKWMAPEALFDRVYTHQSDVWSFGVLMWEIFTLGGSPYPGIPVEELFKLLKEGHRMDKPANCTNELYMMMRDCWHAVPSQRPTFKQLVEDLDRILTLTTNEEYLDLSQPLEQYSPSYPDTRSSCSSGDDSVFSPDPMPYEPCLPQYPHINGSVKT

Structure (SMILES)	IC50 [nM]
C=CC(=O)N1C[C@@H](n2nc(C#Cc3cc4nccc(C)c4cc3F)c(C(N)=O)c2NC)C[C@@H]1COC [Example 274, 3-[2-(6-Fluoro-4-methylquinolin-7-yl)ethynyl]-1-[(3S,5R)-5-(methoxymethyl)-1-(prop-2-enoyl)pyrrolidin-3-yl]-5-(methylamino)pyrazole-4-carboxamide]	< 100
C=CC(=O)N1C[C@@H](n2nc(C#Cc3cc4nccc(C)c4cc3Cl)c(C(N)=O)c2NC)C[C@@H]1COC [Example 281, 3-[2-(6-chloro-4-methylquinolin-7-yl)ethynyl]-1-[(3S,5R)-5-(methoxymethyl)-1-(prop-2-enoyl)pyrrolidin-3-yl]-5-(methylamino)pyrazole-4-carboxamide]	< 100

Same assay, conditions: wild type FGFR2 0.06 nM, 100 μM ATP, 80 minutes at room temperature; class symbols

Structure (SMILES)	IC50 [nM]
C=CC(=O)N1C[C@@H](n2nc(C#Cc3c(F)cc4c(ncn4C4CC4)c3F)c(C(N)=O)c2NCCO)C[C@@H]1COC [Example 251, 3-[2-(1-Cyclopropyl-4,6-difluoro-1,3-benzodiazol-5-yl)ethynyl]-5-[(2-hydroxyethyl)amino]-1-[(3S,5R)-5-(methoxymethyl)-1-(prop-2-enoyl)pyrrolidin-3-yl]pyrazole-4-carboxamide]	≤ 100
C=CC(=O)N1C[C@@H](n2nc(C#Cc3cc4nc(C)n(C5CC5)c4cc3F)c(C(N)=O)c2NCCO)C[C@@H]1COC [Example 252, 3-[2-(1-Cyclopropyl-6-fluoro-2-methyl-1,3-benzodiazol-5-yl)ethynyl]-5-[(2-hydroxyethyl)amino]-1-[(3S,5R)-5-(methoxymethyl)-1-(prop-2-enoyl)pyrrolidin-3-yl]pyrazole-4-carboxamide]	≤ 100
C=CC(=O)N1C[C@@H](n2nc(C#Cc3cc4nc(C)n(C5CC5)c4cc3Cl)c(C(N)=O)c2NCCO)C[C@@H]1COC [Example 253, 1-((3S,5R)-1-Acryloyl-5-(methoxymethyl)pyrrolidin-3-yl)-3-((6-chloro-1-cyclopropyl-2-methyl-1H-benzo[d]imidazol-5-yl)ethynyl)-5-((2-hydroxyethyl)amino)-1H-pyrazole-4-carboxamide]	≤ 100
C=CC(=O)N1C[C@@H](n2nc(C#Cc3cc4c(cc3F)OCO4)c(C(N)=O)c2NC)C[C@@H]1COC [Example 254, 3-[2-(6-Fluoro-2H-1,3-benzodioxol-5-yl)ethynyl]-1-[(3S,5R)-5-(methoxymethyl)-1-(prop-2-enoyl)pyrrolidin-3-yl]-5-(methylamino)pyrazole-4-carboxamide]	≤ 100
C=CC(=O)N1C[C@@H](n2nc(C#Cc3cc4ncc(Cl)cc4cc3F)c(C(N)=O)c2NC)C[C@@H]1COC [Example 256, 3-[2-(3-Chloro-6-fluoroquinolin-7-yl)ethynyl]-1-[(3S,5R)-5-(methoxymethyl)-1-(prop-2-enoyl)pyrrolidin-3-yl]-5-(methylamino)pyrazole-4-carboxamide]	≤ 100
C=CC(=O)N1C[C@@H](n2nc(C#Cc3cc4ncc(C)n4cc3F)c(C(N)=O)c2NC)C[C@@H]1COC [Example 257, 1-((3S,5R)-1-Acryloyl-5-(methoxymethyl)pyrrolidin-3-yl)-3-((6-fluoro-3 methylimidazo[1,2-a]pyridin-7-yl)ethynyl)-5-(methylamino)-1H-pyrazole-4-carboxamide]	≤ 100
C=CC(=O)N1C[C@@H](n2nc(C#Cc3cc4ncc(C)cc4cc3Cl)c(C(N)=O)c2NC)C[C@@H]1COC [Example 258, 3-[2-(6-Chloro-3-methylquinolin-7-yl)ethynyl]-1-[(3S,5R)-5-(methoxymethyl)-1-(prop-2-enoyl)pyrrolidin-3-yl]-5-(methylamino)pyrazole-4-carboxamide]	≤ 100
C=CC(=O)N1C[C@@H](n2nc(C#Cc3cc4nc5n(c4cc3F)CCC5)c(C(N)=O)c2NC)C[C@@H]1COC [Example 260, 1-((3S,5R)-1-acryloyl-5-(methoxymethyl)pyrrolidin-3-yl)-3-((7-fluoro-2,3-dihydro-1H-benzo[d]pyrrolo[1,2-a]imidazol-6-yl)ethynyl)-5-(methylamino)-1H-pyrazole-4-carboxamide]	≤ 100
C=CC(=O)N1C[C@@H](n2nc(C#Cc3cc4ncc(C5CC5)n4cc3Cl)c(C(N)=O)c2NC)C[C@@H]1COC [Example 261, 3-(2-{6-Chloro-3-cyclopropylimidazo[1,2-a]pyridin-7-yl}ethynyl)-1-[(3S,5R)-5-(methoxymethyl)-1-(prop-2-enoyl)pyrrolidin-3-yl]-5-(methylamino)pyrazole-4-carboxamide]	≤ 100
C=CC(=O)N1C[C@@H](n2nc(C#Cc3cc4ncc(C#N)n4cc3F)c(C(N)=O)c2NC)C[C@@H]1COC [Example 262, 3-(2-{3-Cyano-6-fluoroimidazo[1,2-a]pyridin-7-yl}ethynyl)-1-[(3S,5R)-5-(methoxymethyl)-1-(prop-2-enoyl)pyrrolidin-3-yl]-5-(methylamino)pyrazole-4-carboxamide]	≤ 100
C=CC(=O)N1C[C@@H](n2nc(C#Cc3ccc4c(C#N)cnn4c3)c(C(N)=O)c2NC)C[C@@H]1COC [Example 263, 3-(2-{3-Cyanopyrazolo[1,5-a]pyridin-6-yl}ethynyl)-1-[(3S,5R)-5-(methoxymethyl)-1-(prop-2-enoyl)pyrrolidin-3-yl]-5-(methylamino)pyrazole-4-carboxamide]	≤ 100
C=CC(=O)N1C[C@@H](n2nc(C#Cc3cc4ncc(F)cc4cc3F)c(C(N)=O)c2NC)C[C@@H]1COC [Example 264, 3-[2-(3,6-Difluoroquinolin-7-yl)ethynyl]-1-[(3S,5R)-5-(methoxymethyl)-1-(prop-2-enoyl)pyrrolidin-3-yl]-5-(methylamino)pyrazole-4-carboxamide]	≤ 100
C=CC(=O)N1C[C@@H](n2nc(C#Cc3cc4ncc(C)cc4cc3C)c(C(N)=O)c2NC)C[C@@H]1COC [Example 265, 3-[2-(3,6-Dimethylquinolin-7-yl)ethynyl]-1-[(3S,5R)-5-(methoxymethyl)-1-(prop-2-enoyl)pyrrolidin-3-yl]-5-(methylamino)pyrazole-4-carboxamide]	≤ 100
C=CC(=O)N1C[C@@H](n2nc(C#Cc3cc4nncc(C)c4cc3F)c(C(N)=O)c2NC)C[C@@H]1COC [Example 266, 1-((3S,5R)-1-Acryloyl-5-(methoxymethyl)pyrrolidin-3-yl)-3-((6-fluoro-4-methylcinnolin-7-yl)ethynyl)-5-(methylamino)-1H-pyrazole-4-carboxamide]	≤ 100
C=CC(=O)N1C[C@@H](n2nc(C#Cc3cc4ncc(F)cc4cc3Cl)c(C(N)=O)c2NC)C[C@@H]1COC [Example 267, 3-[2-(6-Chloro-3-fluoroquinolin-7-yl)ethynyl]-1-[(3S,5R)-5-(methoxymethyl)-1-(prop-2-enoyl)pyrrolidin-3-yl]-5-(methylamino)pyrazole-4-carboxamide]	≤ 100
C=CC(=O)N1C[C@@H](n2nc(C#Cc3cc4nncc(C)c4cc3Cl)c(C(N)=O)c2NC)C[C@@H]1COC [Example 268, 1-((3S,5R)-1-acryloyl-5-(methoxymethyl)pyrrolidin-3-yl)-3-((6-chloro-4-methylcinnolin-7-yl)ethynyl)-5-(methylamino)-1H-pyrazole-4-carboxamide]	≤ 100
C=CC(=O)N1C[C@@H](n2nc(C#Cc3cc(OC)c4c(C#N)cnn4c3)c(C(N)=O)c2NC)C[C@@H]1COC [Example 270, 1-((3S,5R)-1-acryloyl-5-(methoxymethyl)pyrrolidin-3-yl)-3-((3-cyano-4-methoxypyrazolo[1,5-a]pyridin-6-yl)ethynyl)-5-(methylamino)-1H-pyrazole-4-carboxamide]	≤ 100
C=CC(=O)N1C[C@@H](n2nc(C#Cc3cc4ncc(C(F)F)cc4cc3F)c(C(N)=O)c2NC)C[C@@H]1COC [Example 273, 3-{2-[3-(Difluoromethyl)-6-fluoroquinolin-7-yl]ethynyl}-1-[(3S,5R)-5-(methoxymethyl)-1-(prop-2-enoyl)pyrrolidin-3-yl]-5-(methylamino)pyrazole-4-carboxamide]	≤ 100
C=CC(=O)N1C[C@@H](n2nc(C#Cc3cccc4c3cnn4C)c(C(N)=O)c2NC)C[C@@H]1COC [Example 275, 1-((3S,5R)-1-Acryloyl-5-(methoxymethyl)pyrrolidin-3-yl)-3-((1-methyl-1H-indazol-4-yl)ethynyl)-5-(methylamino)-1H-pyrazole-4-carboxamide]	≤ 100
C=CC(=O)N1C[C@@H](n2nc(C#Cc3cccc4c3cnn4C3CC3)c(C(N)=O)c2NC)C[C@@H]1COC [Example 276, 3-[2-(1-Cyclopropylindazol-4-yl)ethynyl]-1-[(3S,5R)-5-(methoxymethyl)-1-(prop-2-enoyl)pyrrolidin-3-yl]-5-(methylamino)pyrazole-4-carboxamide]	≤ 100
C=CC(=O)N1C[C@@H](n2nc(C#Cc3cccn4cncc34)c(C(N)=O)c2NC)C[C@@H]1COC [Example 277, 3-(2-{Imidazo[1,5-a]pyridin-8-yl}ethynyl)-1-[(3S,5R)-5-(methoxymethyl)-1-(prop-2-enoyl)pyrrolidin-3-yl]-5-(methylamino)pyrazole-4-carboxamide]	≤ 100
C=CC(=O)N1C[C@@H](n2nc(C#Cc3cccc4cncn34)c(C(N)=O)c2NC)C[C@@H]1COC [Example 278, 3-(2-{Imidazo[1,5-a]pyridin-5-yl}ethynyl)-1-[(3S,5R)-5-(methoxymethyl)-1-(prop-2-enoyl)pyrrolidin-3-yl]-5-(methylamino)pyrazole-4-carboxamide]	≤ 100
C=CC(=O)N1C[C@@H](n2nc(C#Cc3cc4ncc(C5CC5)n4cc3F)c(C(N)=O)c2NC)C[C@@H]1COC [Example 283, 3-(2-{3-Cyclopropyl-6-fluoroimidazo[1,2-a]pyridin-7-yl}ethynyl)-1-[(3S,5R)-5-(methoxymethyl)-1-(prop-2-enoyl)pyrrolidin-3-yl]-5-(methylamino)pyrazole-4-carboxamide]	≤ 100
C=CC(=O)N1C[C@@H](n2nc(C#Cc3cc(OC)c4c(C5CC5)cnn4c3)c(C(N)=O)c2NC)C[C@@H]1COC [Example 284, 3-(2-{3-Cyclopropyl-4-methoxypyrazolo[1,5-a]pyridin-6-yl}ethynyl)-1-[(3S,5R)-5-(methoxymethyl)-1-(prop-2-enoyl)pyrrolidin-3-yl]-5-(methylamino)pyrazole-4-carboxamide]	100 to 1000
